# Test results from PubChem BioAssay AID2060486 (Molecular Pharmacology Branch, DTP, NCI, 2025).
# System: IGROV1 complex spheroids (HUVEC, MSC), viability % test/control
# Experiment: Anticancer human tumor IGROV1 cell line growth inhibition [GQUAD];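 also: spheroids exposed to compounds for 7 days before readout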;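 as to viability, T/C: 100% = DMSO vehicle control viability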
# Details: for IC50: curve of first compound; for viability, T/C: stronger effect = lower value
# In short: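 Tumor cells were grown as complex spheroids with HUVEC endothelial cells and mesenchymal stem cells as stroma. G-quadruplex stabilizers were combined with targeted agents over half-log dilutions from near the clinical Cmax, or from 10 microM.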
# [1] = second compound 0.0316 µM, first compound 0.0316 µM
# [2] = second compound 0.0316 µM, first compound 0.1 µM
# [3] = second compound 0.0316 µM, first compound 0.316 µM
# [4] = second compound 0.0316 µM, first compound 1 µM
# [5] = second compound 0.0316 µM, first compound 3.16 µM
# [6] = second compound 0.0316 µM, first compound 10 µM
# [7] = second compound 0.1 µM, first compound 0.0316 µM
# [8] = second compound 0.1 µM, first compound 0.1 µM
# [9] = second compound 0.1 µM, first compound 0.316 µM
# [10] = second compound 0.1 µM, first compound 1 µM
# [11] = second compound 0.1 µM, first compound 3.16 µM
# [12] = second compound 0.1 µM, first compound 10 µM
# [13] = second compound 0.316 µM, first compound 0.0316 µM
# [14] = second compound 0.316 µM, first compound 0.1 µM
# [15] = second compound 0.316 µM, first compound 0.316 µM
# [16] = second compound 0.316 µM, first compound 1 µM
# [17] = second compound 0.316 µM, first compound 3.16 µM
# [18] = second compound 0.316 µM, first compound 10 µM
# [19] = second compound 1 µM, first compound 0.0316 µM
# [20] = second compound 1 µM, first compound 0.1 µM
# [21] = second compound 1 µM, first compound 0.316 µM
# [22] = second compound 1 µM, first compound 1 µM
# [23] = second compound 1 µM, first compound 3.16 µM
# [24] = second compound 1 µM, first compound 10 µM
# [25] = second compound 3.16 µM, first compound 0.0316 µM
# [26] = second compound 3.16 µM, first compound 0.1 µM
# [27] = second compound 3.16 µM, first compound 0.316 µM
# [28] = second compound 3.16 µM, first compound 1 µM
# [29] = second compound 3.16 µM, first compound 3.16 µM
# [30] = second compound 3.16 µM, first compound 10 µM
# [31] = second compound 10 µM, first compound 0.0316 µM
# [32] = second compound 10 µM, first compound 0.1 µM
# [33] = second compound 10 µM, first compound 0.316 µM
# [34] = second compound 10 µM, first compound 1 µM
# [35] = second compound 10 µM, first compound 3.16 µM
# [36] = second compound 10 µM, first compound 10 µM
compound,measurement,setting,value
CC1COCCN1c1cc(-c2ccnn2C)c2ccnc(-c3ccn[nH]3)c2n1 (stereo unspecified) + Cc1[nH]c2ccc(F)cc2c1-c1nc2c3cccnc3c3ncccc3c2[nH]1,IC50,second compound 0.0316 µM,63.5 nM
same,IC50,second compound 0.1 µM,52.6 nM
same,IC50,second compound 0.316 µM,< 31.6 nM
same,IC50,second compound 1 µM,< 31.6 nM
same,IC50,second compound 3.16 µM,< 31.6 nM
same,IC50,second compound 10 µM,< 31.6 nM
same,"viability, T/C",[1],81.2%
same,"viability, T/C",[2],29.2%
same,"viability, T/C",[3],13.1%
same,"viability, T/C",[4],5.35%
same,"viability, T/C",[5],5.85%
same,"viability, T/C",[6],3.72%
same,"viability, T/C",[7],66.3%
same,"viability, T/C",[8],29.4%
same,"viability, T/C",[9],12.7%
same,"viability, T/C",[10],6.46%
same,"viability, T/C",[11],4.05%
same,"viability, T/C",[12],3.93%
same,"viability, T/C",[13],48.1%
same,"viability, T/C",[14],14.3%
same,"viability, T/C",[15],5.71%
same,"viability, T/C",[16],5.18%
same,"viability, T/C",[17],4.33%
same,"viability, T/C",[18],3.75%
same,"viability, T/C",[19],3.38%
same,"viability, T/C",[20],3.29%
same,"viability, T/C",[21],4.19%
same,"viability, T/C",[22],4.05%
same,"viability, T/C",[23],4.41%
same,"viability, T/C",[24],2.28%
same,"viability, T/C",[25],3.79%
same,"viability, T/C",[26],4.74%
same,"viability, T/C",[27],3.3%
same,"viability, T/C",[28],2.73%
same,"viability, T/C",[29],3.37%
same,"viability, T/C",[30],1.52%
same,"viability, T/C",[31],4.11%
same,"viability, T/C",[32],3.77%
same,"viability, T/C",[33],3.3%
same,"viability, T/C",[34],3.47%
same,"viability, T/C",[35],2.98%
same,"viability, T/C",[36],2.3%
CC1COCCN1c1cc(C2(S(C)(=N)=O)CC2)nc(-c2ccnc3[nH]ccc23)n1 (stereo unspecified) + Cc1[nH]c2ccc(F)cc2c1-c1nc2c3cccnc3c3ncccc3c2[nH]1,IC50,second compound 0.0316 µM,986 nM
same,IC50,second compound 0.1 µM,884 nM
same,IC50,second compound 0.316 µM,426 nM
same,IC50,second compound 1 µM,< 31.6 nM
same,IC50,second compound 3.16 µM,< 31.6 nM
same,IC50,second compound 10 µM,< 31.6 nM
same,"viability, T/C",[1],80%
same,"viability, T/C",[2],86.7%
same,"viability, T/C",[3],80.4%
same,"viability, T/C",[4],49.2%
same,"viability, T/C",[5],14.5%
same,"viability, T/C",[6],7.71%
same,"viability, T/C",[7],87.4%
same,"viability, T/C",[8],98.1%
same,"viability, T/C",[9],74.4%
same,"viability, T/C",[10],48.9%
same,"viability, T/C",[11],13.7%
same,"viability, T/C",[12],6.84%
same,"viability, T/C",[13],81.5%
same,"viability, T/C",[14],74.3%
same,"viability, T/C",[15],60.9%
same,"viability, T/C",[16],21.1%
same,"viability, T/C",[17],7.66%
same,"viability, T/C",[18],3.74%
same,"viability, T/C",[19],4.68%
same,"viability, T/C",[20],4.27%
same,"viability, T/C",[21],4.11%
same,"viability, T/C",[22],3.67%
same,"viability, T/C",[23],4.03%
same,"viability, T/C",[24],2.64%
same,"viability, T/C",[25],4.14%
same,"viability, T/C",[26],5.15%
same,"viability, T/C",[27],4.92%
same,"viability, T/C",[28],4.78%
same,"viability, T/C",[29],3.97%
same,"viability, T/C",[30],2.94%
same,"viability, T/C",[31],3.9%
same,"viability, T/C",[32],4.76%
same,"viability, T/C",[33],5.04%
same,"viability, T/C",[34],3.7%
same,"viability, T/C",[35],3.55%
same,"viability, T/C",[36],2.63%
COc1ccc([C@@H](O)c2cc(-c3ncnc4cc(N5CCOCC5)ccc34)c(F)cc2Cl)nn1 + Cc1[nH]c2ccc(F)cc2c1-c1nc2c3cccnc3c3ncccc3c2[nH]1,IC50,second compound 0.0316 µM,797 nM
same,IC50,second compound 0.1 µM,812 nM
same,IC50,second compound 0.316 µM,762 nM
same,IC50,second compound 1 µM,< 31.6 nM
same,IC50,second compound 3.16 µM,< 31.6 nM
same,IC50,second compound 10 µM,< 31.6 nM
same,"viability, T/C",[1],92%
same,"viability, T/C",[2],76.5%
same,"viability, T/C",[3],86.5%
same,"viability, T/C",[4],40.7%
same,"viability, T/C",[5],21.9%
same,"viability, T/C",[6],6.2%
same,"viability, T/C",[7],92.2%
same,"viability, T/C",[8],89.6%
same,"viability, T/C",[9],91.5%
same,"viability, T/C",[10],40.6%
same,"viability, T/C",[11],19.5%
same,"viability, T/C",[12],5.14%
same,"viability, T/C",[13],66.3%
same,"viability, T/C",[14],83.1%
same,"viability, T/C",[15],82.6%
same,"viability, T/C",[16],41.5%
same,"viability, T/C",[17],12.3%
same,"viability, T/C",[18],4.85%
same,"viability, T/C",[19],3.85%
same,"viability, T/C",[20],4.89%
same,"viability, T/C",[21],4.79%
same,"viability, T/C",[22],4.97%
same,"viability, T/C",[23],4%
same,"viability, T/C",[24],5.1%
same,"viability, T/C",[25],3.89%
same,"viability, T/C",[26],4.57%
same,"viability, T/C",[27],3.71%
same,"viability, T/C",[28],4.88%
same,"viability, T/C",[29],3.87%
same,"viability, T/C",[30],3.46%
same,"viability, T/C",[31],3.68%
same,"viability, T/C",[32],3.5%
same,"viability, T/C",[33],4.28%
same,"viability, T/C",[34],4.13%
same,"viability, T/C",[35],5.35%
same,"viability, T/C",[36],3.84%
